Experimental data from US20050282743A1, “Molecular interactions in cells” (Arbor Vita Corporation, priority 2001, published 2005).
Counter-ions that a name gives are not always drawn. Each block holds one compound with its values, some of them ahead of it.

How the values were obtained:
[1] = target: T1, AF6 : Presenilin (115L) (Homo sapiens, UniProt P55196); assay: G assay with FDA approved drug (Example 7, TABLE 10A); type: binding
T1 construct: made in house; host or cells: E. coli (DH5alpha, BL21 or JM109)
Method: (§1) For certain of the PDZ proteins and PL proteins shown to bind together and for which Kd values had been obtained, additional testing was conducted to determine whether certain pharmaceutical compounds would act to antagonize or agonize the interactions. Assays were conducted as for the G′ assay described supra both in the presence and absence of test compound, except that 50 ul of a 10 uM solution of the biotinylated PL peptide is allowed to react with the surface bearing the PDZ-domain polypeptide instead of a 20 uM solution as specified in step (2) of the assay.
(§2) In both tables, the first column (left to right) entitled “PDZ domain” lists the gene name of GST-PDZ domain fusion (see TABLE 9). Entries having two numbers separated by a slash indicate which PDZ domain was utilized. For example, in TABLE 10A, the entry for ZO-3 is 1/3. This means that PDZ domain 1 of 3 was used.
(§3) The second column labeled “PL” indicates the name of the PDZ ligand (see TABLES 10A and 10B) interacting with the PDZ domain. The third column entitled “Drug” lists the common or trade name of pharmaceutical compound tested and found to modulate the specific PDZ-PL interaction (suppliers and chemical information are listed in TABLE 11). The final column with the heading “Change in OD” indicates the change in absorbance at 450 nm of the assay in the absence (first number) or presence (second number) of chemical compound.
(§4) Many FDA approved drugs have unknown mechanism of function. It is quite possible that some of these drugs function by disrupting or increasing PDZ/PL interactions. This possibility was examined by using the ‘G Assay’ (Example 3 section D). FDA approved drugs were incubated in the presence of the labeled peptide and compared to the same interaction without drug to determine if there was an effect on specific PDZ:PL interactions (drugs added with peptide at step 9 in Example 3D). The primary focus of this experiment was on drugs involved in treatment of depression (amitriptyline, desipramine, trimipramine, benztropine, and nortryptilline) and epilepsy (valproic acid). No modes of action are known for these drugs.
(§5) Therapeutic dose was determined by guidelines given in the Physician's Desk Reference and in the assay, 200 times this amount was used. If a dosage range was given, the upper end of the range was used. Each interaction listed in TABLES 10A & B was tested in the ‘G Assay’ (see Example 3) against each of the drugs listed in TABLE 11. The concentration of GST-fusion protein and peptide used in the assay represent the Kd and were determined by titration. These values can be found in TABLE 7. The drugs were added to the peptide before addition to the well containing the PDZ protein. Otherwise, the assay was carried out as described and read at 450 nm after 30 minutes of developing. For the sequences of the PDZs and PLs used in these tests, see TABLES 8 & 9.
(§6) List of interactions and therapeutics for which a modulation of binding was observed. Concentrations at which the GST-PDZ fusion protein and labeled peptide were used can be found in Table 7 or Table 12.

[2] = target: T2, DVL2 : Presenilin (115L) (Homo sapiens, UniProt O14641); assay: as above; type: binding; settings: OD in absence of drug 0.3; drug concentration per TABLE 11; read after 30 minutes
T2 construct: made in house; host or cells: E. coli (DH5alpha, BL21 or JM109)
Method: as §1, §2, §3, §4, §5, §6

[3] = target: T3, ZO-3 1/3 : Presenilin (115L) (Homo sapiens, UniProt O95049); assay: as above; type: binding; settings: OD in absence of drug 1.2; drug concentration per TABLE 11; read after 30 minutes
T3 construct: the entry for ZO-3 is 1/3; This means that PDZ domain 1 of 3 was used; made in house; host or cells: E. coli (DH5alpha, BL21 or JM109)
Method: as §1, §2, §3, §4, §5, §6

[4] = tested on: hSyntenin : Presenilin (115L); assay: as above; type: binding; settings: OD in absence of drug 1.1; drug concentration per TABLE 11; read after 30 minutes
Method: as §1, §2, §3, §4, §5, §6

[5] = target: T4, TIP-1 1/1 : LPAP (30L) (Homo sapiens, UniProt O14907); assay: as above; type: binding; settings: OD in absence of drug 1.1; drug concentration per TABLE 11; read after 30 minutes
T4 construct: made in house; host or cells: E. coli (DH5alpha, BL21 or JM109)
Method: as §1, §2, §3, §4, §5, §6

[6] = target: T5, FLJ10324 : Presenilin 2 (117L) (Homo sapiens, UniProt Q96JH8); assay: as above; type: binding; settings: OD in absence of drug 0.4; drug concentration per TABLE 11; read after 30 minutes
T5 construct: made in house; host or cells: E. coli (DH5alpha, BL21 or JM109)
Method: as §1, §2, §3, §4, §5, §6

[7] = target: T6, Mupp-1 7/13 : Presenilin 2 (117L) (Homo sapiens, UniProt O75970); assay: G assay with FDA approved drug (Example 7, TABLES 10A, 10B); type: binding; settings: OD in absence of drug 0.5; drug concentration per TABLE 11; read after 30 minutes
T6 construct: Entries having two numbers separated by a slash indicate which PDZ domain was utilized; made in house; host or cells: E. coli (DH5alpha, BL21 or JM109)
Method: as §1, §2, §3, §4
as §5, with “For the sequences of the PDZs and PLs used in these tests, see TABLES 8 & 9.” left out

[8] = target: T7, Par 3 3/3 : Presenilin 2 (117L) (Homo sapiens, UniProt Q8TEW0); assay: as above; type: binding; settings: OD in absence of drug 0.6; drug concentration per TABLE 11; read after 30 minutes
T7 construct: made in house; host or cells: E. coli (DH5alpha, BL21 or JM109)
Method: as §1, §2, §3, §4
as §5, with “For the sequences of the PDZs and PLs used in these tests, see TABLES 8 & 9.” left out

[9] = target: T8, Atr-P (1/6) : DNAM (22L) (Homo sapiens, UniProt Q86UL8); assay: G assay with FDA approved drug (Example 7, TABLE 10B); type: binding; settings: OD in absence of drug 4; drug concentration per TABLE 11; read after 30 minutes
T8 construct: made in house; host or cells: E. coli (DH5α, BL21 or JM109)
Method: as §1, §2, §3, §4, §5, §6

[10] = target: T9, BAI-1 (2/6) : DNAM (22L) (Homo sapiens, UniProt Q96QZ7); assay: as above; type: binding; settings: OD in absence of drug 4; drug concentration per TABLE 11; read after 30 minutes
T9 construct: made in house; host or cells: E. coli (DH5α, BL21 or JM109)
Method: as §1, §2, §3, §4, §5, §6

[11] = target: T10, ZO-2 (1/3) : DNAM (22L) (Homo sapiens, UniProt Q9UDY2); assay: as above; type: binding
T10 construct: made in house; host or cells: E. coli (DH5α, BL21 or JM109)
T10 sequence (Q9UDY2 27-122): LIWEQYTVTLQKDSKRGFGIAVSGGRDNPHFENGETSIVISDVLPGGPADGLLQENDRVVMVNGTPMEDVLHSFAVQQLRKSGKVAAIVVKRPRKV
Method: as §1, §2, §3, §4, §5, §6

[12] = target: T11, ZO-1 2/3 : NET (258L) (Homo sapiens, UniProt Q07157, DEL264-264); assay: as above; type: binding; settings: OD in absence of drug 0.8; drug concentration per TABLE 11; read after 30 minutes
T11 construct: made in house; host or cells: E. coli (DH5α, BL21 or JM109)
Method: as §1, §2, §3, §4, §5, §6

[13] = target: T12, Hemba 1003117 : Presenilin 2 (117L) (Homo sapiens, UniProt Q96JH8); assay: as above; type: binding; settings: OD in absence of drug 1.2; drug concentration per TABLE 11; read after 30 minutes
T12 construct: made in house; host or cells: E. coli (DH5α, BL21 or JM109)
Method: as §1, §2, §3, §4, §5, §6

[14] = target: T13, PTPL-1 (4/5) : Presenilin 2 (117L) (Homo sapiens, UniProt Q12923, G1797A); assay: as above; type: binding; settings: OD in absence of drug 1.4; drug concentration per TABLE 11; read after 30 minutes
T13 construct: made in house; host or cells: E. coli (DH5α, BL21 or JM109)
Method: as §1, §2, §3, §4, §5, §6

[15] = tested on: Antigen-specific mouse T cells, BR4.2; assay: T cell stimulation assay, MBPAc1-16 and antigen presenting cells, IFNγ ELISA (FIG. 1A); type: cell-based; settings: 10 μM Tat-peptide; compared to Tat-peptide alone or no peptide
Method: Antigen-specific T cell activation was measured by cytokine production. Fusion peptides containing tat and a T cell surface molecule carboxyl terminus inhibited γ-interferon (IFN) production by a T cell line in response to myelin basic protein (MBP) stimulation. […]
Cell Cultures Cells were maintained and tested in RPMI 1640 media supplemented with 10% fetal calf serum (HyClone), 2 mM glutamine, 10 mM Hepes, 100 U/ml penicillin, 100 μg/ml streptomycin, 0.1 mM non-essential amino acids, 1 mM sodium pyruvate, and 50 μM beta mercaptoethanol.
Supernatants were assayed for cytokine production following activation of T cell lines. […]
IFNγ was measured from cell supernatants, described above, at ambient temperature using the Endogen, Inc. ELISA protocol 3. […] The presence of IFNγ was detected with a biotin-labeled anti-mouse IFNγ monoclonal antibody (MM700B, Endogen, Inc.,). […] The absorbance at 450 nm was measured using a microtiter plate reader (Thermo Max, Molecular Devices) and the concentration of unknown IFNγ from cell supernatants was calculated from a standard curve generated by Softmax Pro software (Molecular Devices).

T3 sequence (O95049 with tags, fused parts or gaps): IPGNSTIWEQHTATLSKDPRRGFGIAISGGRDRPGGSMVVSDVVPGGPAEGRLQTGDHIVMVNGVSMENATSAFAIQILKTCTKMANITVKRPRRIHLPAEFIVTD
T6 sequence (O75970 with tags, fused parts or gaps): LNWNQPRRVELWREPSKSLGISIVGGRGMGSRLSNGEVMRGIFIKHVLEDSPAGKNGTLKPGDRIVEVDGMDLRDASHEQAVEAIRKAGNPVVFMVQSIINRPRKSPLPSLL
T7 sequence (Q8TEW0 579-681): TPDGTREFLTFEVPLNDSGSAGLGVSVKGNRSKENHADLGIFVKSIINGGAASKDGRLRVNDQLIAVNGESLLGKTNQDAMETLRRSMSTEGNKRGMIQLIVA
T1 sequence (P55196 1001-1093): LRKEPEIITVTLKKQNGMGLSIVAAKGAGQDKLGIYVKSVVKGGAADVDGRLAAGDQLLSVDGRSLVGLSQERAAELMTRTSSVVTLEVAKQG
T5 sequence (Q96JH8 976-1061 limits assumed): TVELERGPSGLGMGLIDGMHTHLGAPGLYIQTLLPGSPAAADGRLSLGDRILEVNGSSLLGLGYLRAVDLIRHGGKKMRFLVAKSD
T13 sequence (Q12923 1782-1879 G1797A): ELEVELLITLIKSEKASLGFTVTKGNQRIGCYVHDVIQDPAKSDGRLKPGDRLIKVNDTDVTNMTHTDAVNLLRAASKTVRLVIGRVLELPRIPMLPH
T2 sequence (O14641 with tags, fused parts or gaps): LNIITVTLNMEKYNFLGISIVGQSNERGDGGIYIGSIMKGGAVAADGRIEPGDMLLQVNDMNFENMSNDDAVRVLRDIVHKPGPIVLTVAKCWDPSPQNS
T11 sequence (Q07157 with tags, fused parts or gaps DEL264-264): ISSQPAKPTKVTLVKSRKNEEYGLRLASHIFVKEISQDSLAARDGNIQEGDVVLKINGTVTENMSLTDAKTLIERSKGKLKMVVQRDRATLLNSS
T12 sequence (Q96JH8 969-1068): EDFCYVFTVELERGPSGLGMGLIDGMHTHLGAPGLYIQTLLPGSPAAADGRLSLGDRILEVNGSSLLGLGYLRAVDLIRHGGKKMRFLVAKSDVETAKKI
T8 sequence (Q86UL8 408-511): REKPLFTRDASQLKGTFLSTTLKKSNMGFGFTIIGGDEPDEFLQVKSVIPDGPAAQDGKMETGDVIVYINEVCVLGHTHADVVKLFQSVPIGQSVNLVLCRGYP
T9 sequence (Q96QZ7 463-566): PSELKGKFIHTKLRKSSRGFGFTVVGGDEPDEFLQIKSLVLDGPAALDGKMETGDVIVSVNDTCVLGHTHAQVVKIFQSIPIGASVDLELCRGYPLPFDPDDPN
T4 sequence (O14907 14-116): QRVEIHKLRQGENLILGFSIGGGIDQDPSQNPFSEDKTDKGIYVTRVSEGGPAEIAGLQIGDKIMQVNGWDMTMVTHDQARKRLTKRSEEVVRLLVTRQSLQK

Compound: CN1[C@@H]2CC[C@H]1C[C@@H](OC(c1ccccc1)c1ccccc1)C2 [Benztropine, BENZTROPINE MESYLATE]
Change in OD: absorbance at 450 nm in presence of drug [5]: 1.1 to 1.6

Compound: CCCC(CCC)C(=O)O [Valproic Acid, VALPROIC ACID]
Change in OD: absorbance at 450 nm in presence of drug [7]: 0.5 to 0.2
Change in OD: absorbance at 450 nm in presence of drug [8]: 0.6 to 0.2
CHANGE IN OD: absorbance at 450 nm in presence of drug [13]: 1.2 to 0.8
CHANGE IN OD: absorbance at 450 nm in presence of drug [14]: 1.4 to 1.1

Compound: GYGRKKRRQRRRGPPSSSSGL [Tat-CD3 fusion peptide]
T cell activation mediated by peptide:MHC (IFNγ production) [15]: inhibits T cell activation

Continued, in another order:

agonist effect, binding relative to absence of drug ([1]; AF6 and presenilin-1): 4.3 fold
Change in OD: absorbance at 450 nm in presence of drug ([1]; OD in absence of drug 0.4, drug concentration per TABLE 11, read after 30 minutes): 0.4 to 1.7
Change in OD: absorbance at 450 nm in presence of drug [2]: 0.3 to 0.9
Change in OD: absorbance at 450 nm in presence of drug [3]: 1.2 to 3.6
Compound: CN(C)CCC=C1c2ccccc2CCc2ccccc21 [Amitriptyline, AMITRIPTYLINE HYDROCHLORIDE]
Change in OD: absorbance at 450 nm in presence of drug [4]: 1.1 to 2.7

Change in OD: absorbance at 450 nm in presence of drug [6]: 0.4 to 0.8
Change in OD: absorbance at 450 nm in presence of drug [3]: 1.2 to 3.3
Change in OD: absorbance at 450 nm in presence of drug [7]: 0.5 to 1.0
Change in OD: absorbance at 450 nm in presence of drug [8]: 0.6 to 2.1
CHANGE IN OD: absorbance at 450 nm in presence of drug [9]: 4 to 1.5
CHANGE IN OD: absorbance at 450 nm in presence of drug [10]: 4 to 1.8
CHANGE IN OD: absorbance at 450 nm in presence of drug ([11]; OD in absence of drug 2.1, drug concentration per TABLE 11, read after 30 minutes): 2.1 to 0.5
antagonistic effect, binding relative to absence of drug ([11]; ZO-2 domain 1 and DNAM-1): 4.2 fold
Compound: CNCCCN1c2ccccc2CCc2ccccc21 [Desipramine, DESIPRAMINE HYDROCHLORIDE]
Change in OD: absorbance at 450 nm in presence of drug [4]: 1.1 to 2.3

CHANGE IN OD: absorbance at 450 nm in presence of drug [12]: 0.8 to 0.4
Compound: CN(C)CCCN1c2ccccc2CCc2ccccc21 [Imipramine, Imipramine HCI]
